Assay results published in US8178873B2, “Solution processable organic semiconductors” (3M Innovative Properties Company, priority 2007, dated 2012).

Legend:
[1] = Solubility measurement in n-butylbenzene; format: physicochemical; details: room temperature, weight percent based on total solution weight
Description: The solubility of the small molecule semiconductor was measured in n-butylbenzene at room temperature. The weight percent is based on the total solution weight. Typically, the solubility is lower in n-butylbenzene compared to halogenated solvents such as chloroform, chlorobenzene, and dichlorobenzene.

[2] = Differential Scanning Calorimetry, thermal stability; format: physicochemical; details: DSC, heated from 30 to 360° C. at 10° C. per minute
Description: Differential Scanning Calorimetry Measurement
Differential Scanning Calorimeter (DSC, TA Instruments 2920 from TA Instruments of New Castle, Del.) was used to measure phase transition and melting point of the small molecule semiconductors. Examples 1 to 8 were heated from 30 to 350° C. at a heating rate of 10° C. per minute. […] No decomposition was observed up to the 350° C. of the testing range. […] Example 9 was heated from 30 to 360° C. at a heating rate of 10° C. per minute. […] Example 9 started to decompose around 357° C.

| SMILES | melting point | Solubility in butyl benzene [1] | Temperature at which decomposition started [2] |
| --- | --- | --- | --- |
| Cc1ccsc1-c1ccc2c(C#C[Si](C(C)C)(C(C)C)C(C)C)c3cc(-c4sccc4C)ccc3c(C#C[Si](C(C)C)(C(C)C)C(C)C)c2c1 [Example 3, 2,6-Bis(3-methyl-thiophene-2-yl)-9,10-bis-[(triisopropylsilyl)ethynyl]anthracene] | 237.6 °C | 2.3 wt % | – |
| CCc1ccc(-c2ccc3c(C#C[Si](C(C)C)(C(C)C)C(C)C)c4cc(-c5ccc(CC)s5)ccc4c(C#C[Si](C(C)C)(C(C)C)C(C)C)c3c2)s1 [Example 4, 2,6-Bis(5-ethyl-thiophene-2-yl)-9,10-bis-[(triisopropylsilyl)ethynyl]anthracene] | 274.6 °C | 1.4 wt % | – |
| CCCCCCc1ccc(-c2ccc3c(C#C[Si](C(C)C)(C(C)C)C(C)C)c4cc(-c5ccc(CCCCCC)s5)ccc4c(C#C[Si](C(C)C)(C(C)C)C(C)C)c3c2)s1 [Example 6, 2,6-Bis(5-hexyl-thiophene-2-yl)-9,10-bis-[(triisopropylsilyl)ethynyl]anthracene] | 190.3 °C | 2.5 wt % | – |
| Cc1ccc(-c2ccc3c(C#C[Si](C(C)C)(C(C)C)C(C)C)c4cc(-c5ccc(C)s5)ccc4c(C#C[Si](C(C)C)(C(C)C)C(C)C)c3c2)s1 [Example 2, 2,6-Bis(5-methyl-thiophene-2-yl)-9,10-bis-[(triisopropylsilyl)ethynyl]anthracene] | 333 °C | 0.05 wt % | – |
| CCCc1ccc(-c2ccc3c(C#C[Si](C(C)C)(C(C)C)C(C)C)c4cc(-c5ccc(CCC)s5)ccc4c(C#C[Si](C(C)C)(C(C)C)C(C)C)c3c2)s1 [Example 5, 2,6-Bis(5-propyl-thiophene-2-yl)-9,10-bis-[(triisopropylsilyl)ethynyl]anthracene] | 208.3 °C | 1.4 wt % | – |
| CC(C)[Si](C#Cc1c2ccc(-c3cccs3)cc2c(C#C[Si](C(C)C)(C(C)C)C(C)C)c2ccc(-c3cccs3)cc12)(C(C)C)C(C)C [Example 1, 2,6-Bis(thiophene-2-yl)-9,10-bis-[(triisopropylsilyl)ethynyl]anthracene] | 293 °C | 0.05 wt % | – |
| CCCCCCc1ccsc1-c1ccc2c(C#C[Si](C(C)C)(C(C)C)C(C)C)c3cc(-c4sccc4CCCCCC)ccc3c(C#C[Si](C(C)C)(C(C)C)C(C)C)c2c1 [Example 7, 2,6-Bis(3-hexyl-thiophene-2-yl)-9,10-bis-[(triisopropylsilyl)ethynyl]anthracene] | 141.8 °C | 4.2 wt % | – |
| CC(C)[Si](C#Cc1c2ccc(-c3ccc(C=O)s3)cc2c(C#C[Si](C(C)C)(C(C)C)C(C)C)c2ccc(-c3ccc(C=O)s3)cc12)(C(C)C)C(C)C [Example 9, 2,6-Bis(5-formyl-thiophene-2-yl)-9,10-bis-[(triisopropylsilyl)ethynyl]anthracene] | > 350 °C | 0.04 wt % | around 357 °C |
| CC(C)[Si](C#Cc1c2ccc(-c3ccc(-c4cccs4)s3)cc2c(C#C[Si](C(C)C)(C(C)C)C(C)C)c2ccc(-c3ccc(-c4cccs4)s3)cc12)(C(C)C)C(C)C [Example 8, 2,6-Bis(2,2′-bithiophene-5-yl)-9,10-bis-[(triisopropylsilyl)ethynyl]anthracene] | 299 °C | 0.2 wt % | – |
